The target in assay [1] is T1, Indoleamine 2,3-dioxygenase 1 (Homo sapiens, UniProt P14902). In words: Inhibition of recombinant human IDO1 expressed in Escherichia coli at 10 uM relative to control.
Target sequence in this assay (P14902 whole entry, looked up): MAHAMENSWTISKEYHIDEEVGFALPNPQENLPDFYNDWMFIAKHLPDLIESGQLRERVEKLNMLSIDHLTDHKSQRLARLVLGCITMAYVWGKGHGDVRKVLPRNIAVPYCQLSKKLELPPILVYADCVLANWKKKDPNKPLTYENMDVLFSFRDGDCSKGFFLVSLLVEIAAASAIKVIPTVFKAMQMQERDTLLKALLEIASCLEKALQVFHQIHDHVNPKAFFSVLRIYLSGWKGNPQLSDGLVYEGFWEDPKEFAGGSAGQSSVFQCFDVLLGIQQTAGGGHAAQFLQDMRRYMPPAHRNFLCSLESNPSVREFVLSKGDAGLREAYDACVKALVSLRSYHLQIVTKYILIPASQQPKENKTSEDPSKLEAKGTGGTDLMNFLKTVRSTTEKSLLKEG
In assay [2] the target is T1, Indoleamine 2,3-dioxygenase 1. In words: Inhibition of recombinant human IDO1 expressed in Escherichia coli.
Target sequence in this assay (P14902 whole entry): as the sequence (P14902 whole entry, looked up) above
Assay [3] has the same target. In words: Inhibition of IFNgamma-stimulated IDO1 in human HeLa cells. It counts as cell-based.
Target sequence in this assay (P14902 whole entry): as the sequence (P14902 whole entry, looked up) above
Assay [4] shares this target. Put plainly: Reversible inhibition of recombinant human IDO1 expressed in Escherichia coli at 100 uM using L-tryptophan as substrate.
Target sequence in this assay (P14902 whole entry, looked up): as above
Assay [5] has the same target. Put plainly: Competitive inhibition of recombinant human IDO1 expressed in Escherichia coli at 1 to 4 uM using L-tryptophan as substrate.
Target sequence in this assay (P14902 whole entry, looked up): as above

Activity calls are given as the source filed them. The rule behind the calls is not given here.

In general, inhibition refers to the share of the control response that was lost under treatment. The term IC50 denotes the concentration that gives 50% inhibition. Usually EC50 stands for the concentration needed to bring the measured effect to its halfway point. High values mean a less potent agent, low ones a more potent agent.

As to `CC(C)(C)CNCCc1c[nH]c2c1C(=O)C(c1cccnc1)=CC2=O`, in assay [1], the inhibition was determined as 79.5%. Moreover, the IC50 in assay [2] worked out at 560 nM. This compound also had an EC50 in assay [3] of 4530 nM.

Regarding `O=C1C=C(c2cccnc2)C(=O)c2c(CCNCCc3ccccc3)c[nH]c21`, the inhibition in assay [1] stood at 68.3%. Moreover, in assay [2], the 50% inhibitory concentration (IC50) was found to be 4000 nM. The EC50 in assay [3] was > 10000 nM.

As to `CC(C)NCCc1c[nH]c2c1C(=O)C(c1cccnc1)=CC2=O`, the inhibition in assay [1] amounted to 63.8%. In assay [2], the IC50 is 510 nM. Besides, the EC50 in assay [3] was 2600 nM.

Regarding `O=C1C=C(c2cccnc2)C(=O)c2c(CCNC3CCCCC3)c[nH]c21`, the inhibition in assay [1] amounted to 65%. In addition, the IC50 in assay [2] was 1500 nM. The compound further displayed an EC50 in assay [3] of 2540 nM.

Regarding `COc1ccccc1C1=CC(=O)c2[nH]cc(CCNC(=O)OC(C)(C)C)c2C1=O`, in assay [1], the inhibition was 63.2%. For the same compound, the concentration for half-maximal inhibition (IC50) in assay [2] was determined as 2380 nM.

On to `CC(C)(C)OC(=O)NCCc1c[nH]c2c1C(=O)C(c1ccccc1)=CC2=O`, for which the inhibition in assay [1] amounted to 56.4%. Further, in assay [2], the concentration for half-maximal inhibition (IC50) was 2940 nM.

`CC(C)(C)C(=O)NCCc1c[nH]c2c1C(=O)C(c1cccnc1)=CC2=O`: the inhibition in assay [1] came to 72.3%. For the same compound, the IC50 in assay [2] turned out to be 770 nM. In assay [3], this compound registered an EC50 of 4600 nM.

For `CCN(CC)CCc1c[nH]c2c1C(=O)C(c1cccnc1)=CC2=O`, the inhibition in assay [1] came out at 64.2%. The IC50 in assay [2] was 2260 nM. Also, in assay [3], the EC50 is > 10000 nM.

Take `CC(C)(C)OC(=O)NCCc1c[nH]c2c1C(=O)C(c1ccncc1)=CC2=O`: the inhibition in assay [1] was 12.4%.

`CC(C)(C)OC(=O)NCCc1c[nH]c2c1C(=O)C(c1cccnc1)=CC2=O`: in assay [1], the inhibition stood at 66.5%. Besides, the IC50 in assay [2] is 1900 nM. Further, in assay [3], the response was half-maximal at 5400 nM (EC50). For the same compound, the inhibition result in assay [4] and in assay [5] was “Active” throughout.

For the compound `Cc1ccc(C2=CC(=O)c3[nH]cc(CCNC(=O)OC(C)(C)C)c3C2=O)cc1`, the inhibition in assay [1] was found to be 25.5%.

In the case of `CN(C)CCc1c[nH]c2c1C(=O)C(c1cccnc1)=CC2=O`, the inhibition in assay [1] came out at 71.3%. Further, the half-maximal inhibitory concentration (IC50) in assay [2] worked out at 500 nM. Also, a half-maximal response in assay [3] (EC50) required 4220 nM.

`NCCc1c[nH]c2c1C(=O)C(c1cccnc1)=CC2=O`: in assay [1], the inhibition amounted to 74.9%. Also, the 50% inhibitory concentration (IC50) in assay [2] was 510 nM. This compound showed an EC50 in assay [3] of 6620 nM.

Regarding `CCNCCc1c[nH]c2c1C(=O)C(c1cccnc1)=CC2=O`, the inhibition in assay [1] was found to be 81.7%. Moreover, the IC50 in assay [2] turned out to be 160 nM. This compound also gave an EC50 in assay [3] of 3580 nM.

As to `O=C1C=C(c2cccnc2)C(=O)c2c(CCNS(=O)(=O)c3ccccc3)c[nH]c21`, the inhibition in assay [1] turned out to be 59.7%. Further, the IC50 in assay [2] was 3510 nM. Further, in assay [3], a half-maximal response (EC50) required 4920 nM.

In the case of `COc1ccc(C2=CC(=O)c3[nH]cc(CCNC(=O)OC(C)(C)C)c3C2=O)cc1`, in assay [1], the inhibition was determined as 34.5%.

For the compound `CC(=O)NCCc1c[nH]c2c1C(=O)C(c1cccnc1)=CC2=O`, the inhibition in assay [1] is 57.5%. For the same compound, the IC50 in assay [2] came out at 1360 nM. Also, the concentration giving a half-maximal response (EC50) in assay [3] is > 10000 nM.

For the compound `CC(C)(C)OC(=O)NCCc1c[nH]c2c1C(=O)C(c1ccc(F)cc1)=CC2=O`, the inhibition in assay [1] was 43.3%.

Consider `CCCCNCCc1c[nH]c2c1C(=O)C(c1cccnc1)=CC2=O`, for which the inhibition in assay [1] is 79.2%. Also, the IC50 in assay [2] worked out at 880 nM. Further, in assay [3], the response was half-maximal at 2720 nM (EC50).

Regarding `O=C(NCCc1c[nH]c2c1C(=O)C(c1cccnc1)=CC2=O)c1ccccc1`, the inhibition in assay [1] turned out to be 65.7%. Besides, the IC50 in assay [2] came out at 2080 nM. Also, the 50% effective concentration (EC50) in assay [3] amounted to 5090 nM.

With `CC(C)(C)OC(=O)NCCc1c[nH]c2c1C(=O)C(c1ccccc1F)=CC2=O`, in assay [1], the inhibition came to 67.3%. For the same compound, in assay [2], the IC50 amounted to 2090 nM.

The record behind these values is ChEMBL document CHEMBL4610037, “Discovery of 5-(pyridin-3-yl)-1H-indole-4,7-diones as indoleamine 2,3-dioxygenase 1 (IDO1) inhibitors” (Bioorg Med Chem Lett, 2020).
